Here are results for 30 molecules from ChEMBL document CHEMBL3112582, “Identification of novel 7-amino-5-methyl-1,6-naphthyridin-2(1H)-one derivatives as potent PI3K/mTOR dual inhibitors” (Bioorg Med Chem Lett, 2014).

By IC50 is commonly meant the midpoint of a concentration-inhibition curve. Read a low IC50 as greater potency. One may read the AUC(0-inf) as total exposure, with the tail of the curve extrapolated. A low value points to low exposure. One may read the bioavailability as dose-corrected exposure relative to a reference, in per cent. Low values mean poor availability, high ones good availability. What is called half-life is the time in which the quantity being followed falls by half. Read a high half-life as slow loss. In general, clearance refers to the volume of plasma or blood freed of the substance per unit of time. High values mean a high capacity for elimination, low ones a low capacity for elimination.

Each structure is given as a SMILES string.

Series [1] deals with Serine/threonine-protein kinase mTOR (Homo sapiens, UniProt P42345). The series is described as follows: Inhibition of mTOR (unknown origin) after 40 mins by TR-FRET assay.
In series [2] the target is Phosphatidylinositol 4,5-bisphosphate 3-kinase catalytic subunit alpha isoform (Homo sapiens, UniProt P42336). Description: Inhibition of PI3Kalpha (unknown origin) using PIP2/PS as substrate compound preincubated for 15 mins by luciferase-based luminescence assay.
Series [3] in a line: AUC (infinity) in CD-1 mouse at 6.81 mg/kg, po. On the set-up: time infinity, dose 6.81 mg/kg, route oral. Type of series: ADME, organism-based. As to conditions: plasma.
Series [4] is described as follows: Oral bioavailability in CD-1 mouse at 6.81 mg/kg. Type of series: ADME, organism-based. To be noted: in vivo.
Series [5] is described as follows: Half life in CD-1 mouse at 6.81 mg/kg, po. Type of series: ADME, organism-based. As to conditions: in vivo. On the set-up: dose 6.81 mg/kg, route oral.
Series [6] can be described thus: Clearance in CD-1 mouse at 1.3 mg/kg, iv. Type of series: ADME, organism-based. As to conditions: in vivo. On the set-up: dose 1.3 mg/kg, route intravenous.
The nature of series [7]: Half life in CD-1 mouse at 1.3 mg/kg, iv. Type of series: ADME, organism-based. Also on record: dose 1.3 mg/kg, route intravenous. As to conditions: in vivo.
Series [8] concerns SK-OV-3. Description: Antiproliferative activity against human SKOV3 cells after 72 hrs by CellTiter-Glo assay. As to conditions: SK-OV-3, 72 h. Type of series: functional, cell-based. For orientation: In ATP-based viability assays light output follows the ATP content of the culture.
Series [9] in a line: AUC (infinity) in CD-1 mouse at 1.3 mg/kg, iv. Type of series: ADME, organism-based. On the set-up: time infinity, dose 1.3 mg/kg, route intravenous. To be noted: plasma.

Sequence of Phosphatidylinositol 4,5-bisphosphate 3-kinase catalytic subunit alpha isoform (P42336 whole entry, canonical isoform): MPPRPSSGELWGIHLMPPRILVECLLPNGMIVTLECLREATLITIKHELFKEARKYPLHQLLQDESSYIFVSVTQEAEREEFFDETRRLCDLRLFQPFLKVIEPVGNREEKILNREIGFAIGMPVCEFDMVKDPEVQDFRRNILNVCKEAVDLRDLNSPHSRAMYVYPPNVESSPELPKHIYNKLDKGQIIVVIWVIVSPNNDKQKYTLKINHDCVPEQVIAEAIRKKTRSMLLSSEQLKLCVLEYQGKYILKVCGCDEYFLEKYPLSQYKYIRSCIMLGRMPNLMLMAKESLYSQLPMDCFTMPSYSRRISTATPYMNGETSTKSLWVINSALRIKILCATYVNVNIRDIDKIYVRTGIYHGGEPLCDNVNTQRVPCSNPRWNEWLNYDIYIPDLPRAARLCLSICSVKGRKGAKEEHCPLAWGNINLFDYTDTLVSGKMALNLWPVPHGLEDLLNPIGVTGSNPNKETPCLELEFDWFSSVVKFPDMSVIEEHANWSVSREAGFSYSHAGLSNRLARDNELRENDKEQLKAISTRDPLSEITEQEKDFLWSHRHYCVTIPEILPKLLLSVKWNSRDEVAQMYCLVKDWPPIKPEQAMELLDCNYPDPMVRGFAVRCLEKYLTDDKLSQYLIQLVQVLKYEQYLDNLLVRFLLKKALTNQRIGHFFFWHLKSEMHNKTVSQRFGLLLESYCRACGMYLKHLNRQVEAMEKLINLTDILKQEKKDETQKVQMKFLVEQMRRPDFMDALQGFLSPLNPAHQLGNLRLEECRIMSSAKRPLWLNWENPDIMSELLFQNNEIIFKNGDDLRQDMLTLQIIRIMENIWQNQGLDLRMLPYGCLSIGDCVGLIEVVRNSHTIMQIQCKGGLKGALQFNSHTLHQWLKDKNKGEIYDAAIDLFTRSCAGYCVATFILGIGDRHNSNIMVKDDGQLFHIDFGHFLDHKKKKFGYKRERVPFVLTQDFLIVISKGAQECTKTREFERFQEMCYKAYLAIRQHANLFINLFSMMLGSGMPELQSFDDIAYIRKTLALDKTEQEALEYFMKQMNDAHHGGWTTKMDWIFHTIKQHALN

In turn, `COc1ccc(-c2cc3c(C)nc(N)nc3n(C3CCCC3)c2=O)cn1` registered an IC50 in [1] of 30.1 nM.
Turning to `COc1ncc(-c2cc3c(C)nc(N)cc3n(C3CCCC3)c2=O)cc1NS(=O)(=O)c1ccc(C(F)(F)F)cc1`, the concentration for half-maximal inhibition (IC50) came to 175 nM in [2] and 78.2 nM in [1].
As to `COc1ncc(-c2cnc3nc(N)nc(C)c3c2)cc1NS(=O)(=O)c1ccc(F)cc1F`, in [1], inhibition was half-maximal at 35.3 nM (IC50).
As for `Cc1nc(N)cc2c1cc(-c1cnc3[nH]cnc3c1)c(=O)n2C1CCCC1`, the IC50 is 2.9 nM in series [2] and 13.9 nM in series [1].
On to `COc1ncc(-c2cc3c(C)nc(N)cc3n([C@H]3CC[C@H](OCCO)CC3)c2=O)cc1NS(=O)(=O)c1ccc(F)cc1F`, for which the IC50 stood at 2.42 nM in series [2], 8.55 nM in series [1] and 2100 nM in [8]. For the same molecule, the AUC(0-inf) is 3440 ng·h/mL in series [3] and 8090 ng·h/mL in series [9]. Further, in [4], the bioavailability was determined as 8.5%. Besides, the half-life in series [5] was 7.67 h; in series [7], 1.33 h. The clearance in series [6] was 2.87 mL/min/kg.
Turning to `COc1ncc(-c2cc3c(C)nc(N)cc3n(C3CCCC3)c2=O)cc1NS(=O)(=O)c1ccc(Cl)s1`, the IC50 in [2] was 31.2 nM; in series [1], 8.49 nM.
`Cc1nc(N)cc2c1cc(-c1cnc3c(ccn3C)c1)c(=O)n2C1CCCC1`: the figures for the IC50 in series [2] and in series [1] were 15.2 nM and 82.1 nM, respectively.
`COc1ncc(-c2cc3c(C)nc(N)cc3n(C3CCCC3)c2=O)cc1NS(=O)(=O)c1ccccc1F` had an IC50 in [2] of 37.3 nM.
As to `COc1ncc(-c2cc3c(C)nc(N)cc3n(C3CCCC3)c2=O)cc1NS(=O)(=O)c1ccc(F)cc1F`, the concentration for half-maximal inhibition (IC50) amounted to 12 nM in [2] and 33.9 nM in [1].
For `COc1ccc(-c2cn([C@H]3CC[C@H](OCCO)CC3)c3nc(N)nc(C)c23)cn1` the same measures were greater than 10000 nM and greater than 10000 nM.
The corresponding values for `COc1ncc(-c2cc3c(C)nc(N)cc3n(C3CCCC3)c2=O)cc1NS(=O)(=O)c1cccc(F)c1` are 60.5 nM and 13.9 nM.
As for `COc1ncc(-c2cc3c(C)nc(N)cc3n(C3CCCC3)c2=O)cc1NS(C)(=O)=O`, the figures for the half-inhibitory concentration (IC50) in [2] and in series [1] were 23.1 nM and 62.6 nM, respectively.
Take `COc1ncc(-c2cc3c(C)nc(N)cc3n(C3CCOCC3)c2=O)cc1NS(=O)(=O)c1ccc(F)cc1F`: the 50% inhibitory concentration (IC50) in series [2] is 8.6 nM; in [1], 13.4 nM.
As to `COc1ncc(-c2cc3c(C)nc(N)cc3n(C3CCCC3)c2=O)cc1F`, the IC50 in series [2] was 5.95 nM; in [1] it was 160 nM.
Turning to `COc1ncc(-c2cc3c(C)nc(N)cc3n(C3CCCC3)c2=O)cc1NS(=O)(=O)C1CC1`, the IC50 in series [2] was 69.1 nM; in [1], 141 nM.
With `COc1ncc(-c2cc3c(C)nc(N)cc3n(C3CC3)c2=O)cc1NS(=O)(=O)c1ccc(F)cc1F`, 39.6 nM corresponded to half-maximal inhibition in series [2] (IC50).
As to `Cc1nc(N)cc2c1cc(-c1cnc3[nH]ncc3c1)c(=O)n2C1CCCC1`, the figures for the IC50 in [2] and in series [1] were 6 nM and 172 nM, respectively.
In the case of `COc1ncc(-c2cc3c(C)nc(N)cc3n(C3CCCC3)c2=O)cn1`, the IC50 in series [2] came to 6.45 nM; in [1], 36.5 nM.
For `Cc1nc(N)cc2c1cc(-c1cnc3[nH]ccc3c1)c(=O)n2C1CCCC1` the same measures were 2.45 nM and 12.3 nM.
Turning to `COc1ncc(-c2cc3c(C)nc(N)cc3n(C3CCCC3)c2=O)cc1NS(=O)(=O)c1ccccc1`, the results for the IC50 in series [2] and in series [1] were 117 nM and 19.2 nM, respectively.
The corresponding values for `COc1ccc(-c2cc3c(C)nc(N)cc3n(C3CCCC3)c2=O)cn1` are 13.6 nM and 39 nM.
The corresponding values for `COc1ncc(-c2cnc3nc(N)nc(-c4ccncc4)c3c2)cc1NS(=O)(=O)c1ccc(F)cc1F` are 35.6 nM and 18.4 nM.
On to `COc1ncc(-c2cc3c(C)nc(N)cc3n([C@H]3CC[C@H](O)CC3)c2=O)cc1NS(=O)(=O)c1ccc(F)cc1F`, for which the IC50 turned out to be 9.9 nM in series [2] and 28.7 nM in [1].
As to `COc1ncc(-c2ccc3nc(N)nc(C)c3c2)cc1NS(=O)(=O)c1ccc(F)cc1F`, the IC50 was 3.43 nM in series [2] and 2.32 nM in series [1].
In the case of `COc1ncc(-c2cc3c(C)nc(N)cc3n(C3CCCC3)c2=O)cc1NS(=O)(=O)c1ccc(F)cc1`, the values for the IC50 in series [2] and in series [1] were 72.6 nM and 35 nM, respectively.
The corresponding values for `COc1ccc(-c2cc3c(C)nc(N)nc3n2[C@H]2CC[C@H](OCCO)CC2)cn1` are 5550 nM and greater than 10000 nM.
The corresponding values for `COc1ncc(-c2cc3c(C)nc(N)cc3n(C(C)C)c2=O)cc1NS(=O)(=O)c1ccc(F)cc1F` are 42.8 nM and 126 nM.
For the molecule `COc1ccc(S(=O)(=O)Nc2cc(-c3cc4c(C)nc(N)cc4n(C4CCCC4)c3=O)cnc2OC)cc1`, the IC50 was found to be 174 nM in series [2] and 65.6 nM in series [1].
`COc1ccc(-c2cc3c(C)nc(N)cc3n([C@H]3CC[C@H](OCCO)CC3)c2=O)cn1`: the IC50 in series [2] is 35.4 nM; in series [1], 11.2 nM.
The corresponding values for `COc1ncc(-c2cc3c(C)nc(N)cc3n(C3CCCC3)c2=O)cc1NS(=O)(=O)c1ccc(C#N)cc1` are 14.3 nM and 24.7 nM.
